The experiment concerns the target human NaV 1.8 (Homo sapiens, UniProt Q9Y5Y9). Nature of the experiment: E-VIPR assay for detecting and measuring NaV inhibition properties. The class given is cell-based. The conditions noted are these: E-VIPR assay conducted in the presence of human serum; HEK cells expressing truncated human NaV 1.8; read-out: IC50. A digest of the protocol: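 Membrane-potential (coumarin/oxonol) readout after 10 s of 10 Hz biphasic electrical stimulation on E-VIPR. Compounds: 11-point 3-fold dilutions, […], 0.625% DMSO, 30 min at room temperature, human serum optional. Cells: HEK expressing truncated human NaV1.8 co-transduced with KIR2.1.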
human NaV 1.8, sequence (Q9Y5Y9 whole entry, looked up, the tested form may be a part): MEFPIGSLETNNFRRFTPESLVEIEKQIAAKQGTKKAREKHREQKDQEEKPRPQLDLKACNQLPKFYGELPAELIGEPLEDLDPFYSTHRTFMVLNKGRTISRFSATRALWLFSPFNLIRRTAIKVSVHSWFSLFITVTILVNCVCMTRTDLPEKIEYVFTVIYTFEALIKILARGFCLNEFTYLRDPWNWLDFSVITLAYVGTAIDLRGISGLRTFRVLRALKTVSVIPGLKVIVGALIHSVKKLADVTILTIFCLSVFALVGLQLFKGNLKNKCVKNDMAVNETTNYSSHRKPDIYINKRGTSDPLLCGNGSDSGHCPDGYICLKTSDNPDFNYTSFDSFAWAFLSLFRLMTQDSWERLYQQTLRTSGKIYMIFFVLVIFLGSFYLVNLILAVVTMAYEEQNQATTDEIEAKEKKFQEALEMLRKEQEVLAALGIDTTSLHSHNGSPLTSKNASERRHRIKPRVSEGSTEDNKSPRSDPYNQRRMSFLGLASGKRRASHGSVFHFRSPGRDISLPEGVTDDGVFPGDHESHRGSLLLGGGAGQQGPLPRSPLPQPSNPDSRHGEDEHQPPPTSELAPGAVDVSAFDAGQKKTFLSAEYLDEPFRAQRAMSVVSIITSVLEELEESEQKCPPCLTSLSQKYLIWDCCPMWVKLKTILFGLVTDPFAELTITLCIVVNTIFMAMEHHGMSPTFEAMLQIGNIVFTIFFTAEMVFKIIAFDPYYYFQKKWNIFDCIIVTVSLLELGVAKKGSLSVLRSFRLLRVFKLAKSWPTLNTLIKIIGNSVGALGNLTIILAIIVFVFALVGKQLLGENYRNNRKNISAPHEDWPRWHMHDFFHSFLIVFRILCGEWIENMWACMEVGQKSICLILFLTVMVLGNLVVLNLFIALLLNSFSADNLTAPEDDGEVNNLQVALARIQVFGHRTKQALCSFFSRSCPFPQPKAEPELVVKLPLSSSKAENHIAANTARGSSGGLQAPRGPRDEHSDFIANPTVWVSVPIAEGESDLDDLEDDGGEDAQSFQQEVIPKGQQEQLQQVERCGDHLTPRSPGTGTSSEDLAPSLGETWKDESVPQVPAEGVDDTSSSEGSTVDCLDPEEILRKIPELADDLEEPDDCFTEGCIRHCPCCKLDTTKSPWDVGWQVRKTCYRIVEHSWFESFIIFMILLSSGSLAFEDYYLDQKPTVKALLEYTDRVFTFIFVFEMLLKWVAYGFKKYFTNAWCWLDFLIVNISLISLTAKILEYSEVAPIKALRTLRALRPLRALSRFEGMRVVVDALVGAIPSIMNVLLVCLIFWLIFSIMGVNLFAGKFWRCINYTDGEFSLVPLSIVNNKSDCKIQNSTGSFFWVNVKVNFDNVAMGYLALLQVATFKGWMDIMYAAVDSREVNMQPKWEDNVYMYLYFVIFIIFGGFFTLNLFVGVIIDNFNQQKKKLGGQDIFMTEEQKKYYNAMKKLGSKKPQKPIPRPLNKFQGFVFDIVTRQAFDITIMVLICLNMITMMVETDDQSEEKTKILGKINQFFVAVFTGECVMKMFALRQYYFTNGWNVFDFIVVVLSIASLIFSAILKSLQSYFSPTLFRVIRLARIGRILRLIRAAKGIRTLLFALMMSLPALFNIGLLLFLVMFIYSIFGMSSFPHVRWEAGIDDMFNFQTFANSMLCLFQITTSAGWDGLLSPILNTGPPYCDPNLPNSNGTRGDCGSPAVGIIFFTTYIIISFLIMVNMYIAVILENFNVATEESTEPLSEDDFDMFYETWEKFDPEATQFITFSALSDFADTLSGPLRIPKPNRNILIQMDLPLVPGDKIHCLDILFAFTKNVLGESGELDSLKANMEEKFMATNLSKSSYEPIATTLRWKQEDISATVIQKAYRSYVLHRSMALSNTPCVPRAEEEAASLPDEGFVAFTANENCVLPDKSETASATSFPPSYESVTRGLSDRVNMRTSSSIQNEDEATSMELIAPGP
By IC50 is commonly meant the concentration at which inhibition is half-maximal. As for `COc1cc(OC(F)(F)F)ccc1Oc1cc(Br)cc(F)c1C(=O)Nc1ccnc(C(N)=O)c1` [Compound 119, 4-[[4-bromo-2-fluoro-6-[2-methoxy-4-(trifluoromethoxy)phenoxy]benzoyl]amino]pyridine-2-carboxamide], the IC50 amounted to 8 nM. The value for `COc1c(Oc2ccc(C(F)(F)F)c(C)c2C(=O)Nc2ccnc(C(N)=O)c2)ccc(F)c1F` [Compound 120, 4-[[6-(3,4-difluoro-2-methoxy-phenoxy)-2-methyl-3-(trifluoromethyl)benzoyl]amino]pyridine-2-carboxamide] was 20 nM; that for `Cc1c(C(F)(F)F)ccc(Oc2ccc(OC(C)C)c(F)c2F)c1C(=O)Nc1ccnc(C(N)=O)c1` [Compound 121, 4-[[6-(2,3-difluoro-4-isopropoxy-phenoxy)-2-methyl-3-(trifluoromethyl)benzoyl]amino]pyridine-2-carboxamide] was 16 nM; that for `Cc1c(C(F)(F)F)ccc(Oc2ccc(F)cc2Cl)c1C(=O)Nc1ccnc(C(N)=O)c1` [Compound 122, 4-[[6-(2-chloro-4-fluoro-phenoxy)-2-methyl-3-(trifluoromethyl)benzoyl]amino]pyridine-2-carboxamide] was 25 nM. On to `Cc1c(C(F)(F)F)ccc(Oc2ccc(OC(F)(F)F)cc2)c1C(=O)Nc1ccnc(C(N)=O)c1` [Compound 123, 4-[[2-methyl-6-[4-(trifluoromethoxy)phenoxy]-3-(trifluoromethyl)benzoyl]amino]pyridine-2-carboxamide], for which the IC50 was determined as 53 nM.

As to `Cc1c(C(F)(F)F)ccc(Oc2ccc(OC(C)C)c(Cl)c2)c1C(=O)Nc1ccnc(C(N)=O)c1` [Compound 124, 4-[[6-(3-chloro-4-isopropoxy-phenoxy)-2-methyl-3-(trifluoromethyl)benzoyl]amino]pyridine-2-carboxamide], the IC50 worked out at 16 nM.

With `Cc1c(C(F)(F)F)ccc(Oc2ccc(F)c3c2OCC3)c1C(=O)Nc1ccnc(C(N)=O)c1` [Compound 125, 4-[[6-[(4-fluoro-2,3-dihydrobenzofuran-7-yl)oxy]-2-methyl-3-(trifluoromethyl)benzoyl]amino]pyridine-2-carboxamide], the IC50 was determined as 140 nM. The value for `Cc1c(C(F)(F)F)ccc(Oc2ccc(F)c(F)c2)c1C(=O)Nc1ccnc(C(N)=O)c1` [Compound 126, 4-[[6-(3,4-difluorophenoxy)-2-methyl-3-(trifluoromethyl)benzoyl]amino]pyridine-2-carboxamide] was 180 nM; that for `Cc1c(C(F)(F)F)ccc(Oc2ccc(F)c(Cl)c2)c1C(=O)Nc1ccnc(C(N)=O)c1` [Compound 127, 4-[[6-(3-chloro-4-fluoro-phenoxy)-2-methyl-3-(trifluoromethyl)benzoyl]amino]pyridine-2-carboxamide] was 150 nM; that for `Cc1c(C(F)(F)F)ccc(Oc2ccc(OC(F)(F)F)cc2F)c1C(=O)Nc1ccnc(C(N)=O)c1` [Compound 128, 4-[[6-[2-fluoro-4-(trifluoromethoxy)phenoxy]-2-methyl-3-(trifluoromethyl)benzoyl]amino]pyridine-2-carboxamide] was 83 nM. Turning to `Cc1cc(F)ccc1Oc1ccc(C(F)(F)F)c(C)c1C(=O)Nc1ccnc(C(N)=O)c1` [Compound 129, 4-[[6-(4-fluoro-2-methyl-phenoxy)-2-methyl-3-(trifluoromethyl)benzoyl]amino]pyridine-2-carboxamide], the IC50 was 20 nM. With `CCOc1ccc(Oc2ccc(C(F)(F)F)c(C)c2C(=O)Nc2ccnc(C(N)=O)c2)c(F)c1F` [Compound 130, 4-[[6-(4-ethoxy-2,3-difluoro-phenoxy)-2-methyl-3-(trifluoromethyl)benzoyl]amino]pyridine-2-carboxamide], the IC50 stood at 40 nM. The value for `Cc1c(C(F)(F)F)ccc(Oc2ccc(F)cc2F)c1C(=O)Nc1ccnc(C(N)=O)c1` [Compound 131, 4-[[6-(2,4-difluorophenoxy)-2-methyl-3-(trifluoromethyl)benzoyl]amino]pyridine-2-carboxamide] was 155 nM; that for `Cc1c(C(F)(F)F)ccc(Oc2ccc(OC(C)C)cc2F)c1C(=O)Nc1ccnc(C(N)=O)c1` [Compound 132, 4-[[6-(2-fluoro-4-isopropoxy-phenoxy)-2-methyl-3-(trifluoromethyl)benzoyl]amino]pyridine-2-carboxamide] was over 3000 nM. The result for `Cc1cc(OC(F)(F)F)ccc1Oc1ccc(C(F)(F)F)c(C)c1C(=O)Nc1ccnc(C(N)=O)c1` [Compound 133, 4-[[2-methyl-6-[2-methyl-4-(trifluoromethoxy)phenoxy]-3-(trifluoromethyl)benzoyl]amino]pyridine-2-carboxamide] reads 9 nM; that for `COc1cc(Cl)ccc1Oc1ccc(C(F)(F)F)c(C)c1C(=O)Nc1ccnc(C(N)=O)c1` [Compound 134, 4-[[6-(4-chloro-2-methoxy-phenoxy)-2-methyl-3-(trifluoromethyl)benzoyl]amino]pyridine-2-carboxamide], 120 nM; that for `Cc1c(C(F)(F)F)ccc(Oc2ccc(Cl)cc2F)c1C(=O)Nc1ccnc(C(N)=O)c1` [Compound 135, 4-[[6-(4-chloro-2-fluoro-phenoxy)-2-methyl-3-(trifluoromethyl)benzoyl]amino]pyridine-2-carboxamide], 470 nM. Turning to `Cc1cc(Cl)ccc1Oc1ccc(C(F)(F)F)c(C)c1C(=O)Nc1ccnc(C(N)=O)c1` [Compound 136, 4-[[6-(4-chloro-2-methyl-phenoxy)-2-methyl-3-(trifluoromethyl)benzoyl]amino]pyridine-2-carboxamide], the IC50 came out at 140 nM. As for `COc1cc(F)ccc1Oc1ccc(C(F)(F)F)c(C)c1C(=O)Nc1ccnc(C(N)=O)c1` [Compound 137, 4-[[6-(4-fluoro-2-methoxy-phenoxy)-2-methyl-3-(trifluoromethyl)benzoyl]amino]pyridine-2-carboxamide], the concentration for half-maximal inhibition (IC50) is 54 nM. The value for `Cc1c(C(F)(F)F)ccc(Oc2ccc(OC(F)(F)F)c(Cl)c2)c1C(=O)Nc1ccnc(C(N)=O)c1` [Compound 138, 4-[[6-[3-chloro-4-(trifluoromethoxy)phenoxy]-2-methyl-3-(trifluoromethyl)benzoyl]amino]pyridine-2-carboxamide] was 20 nM; that for `Cc1c(C(F)(F)F)ccc(Oc2ccc(OC(F)(F)F)c(F)c2)c1C(=O)Nc1ccnc(C(N)=O)c1` [Compound 139, 4-[[6-[3-fluoro-4-(trifluoromethoxy)phenoxy]-2-methyl-3-(trifluoromethyl)benzoyl]amino]pyridine-2-carboxamide] was 33 nM.

As for `Cc1c(C(F)(F)F)ccc(Oc2ccc(F)c(F)c2F)c1C(=O)Nc1ccnc(C(N)=O)c1` [Compound 140, 4-[[2-methyl-3-(trifluoromethyl)-6-(2,3,4-trifluorophenoxy)benzoyl]amino]pyridine-2-carboxamide], the IC50 came to 68 nM.

As to `Cc1c(F)ccc(Oc2ccc(C(F)(F)F)c(C)c2C(=O)Nc2ccnc(C(N)=O)c2)c1C` [Compound 141, 4-[[6-(4-fluoro-2,3-dimethyl-phenoxy)-2-methyl-3-(trifluoromethyl)benzoyl]amino]pyridine-2-carboxamide], the IC50 amounted to 220 nM. The value for `Cc1cc(Cl)cc(Cl)c1Oc1ccc(C(F)(F)F)c(C)c1C(=O)Nc1ccnc(C(N)=O)c1` [Compound 142, 4-[[6-(2,4-dichloro-6-methyl-phenoxy)-2-methyl-3-(trifluoromethyl)benzoyl]amino]pyridine-2-carboxamide] was 1700 nM.

(Values after US12441703B2, “Carboxamides as modulators of sodium channels” (VERTEX PHARMACEUTICALS INCORPORATED, priority 2019, dated 2025).)
